Here are results for one compound from patent US20210393547A1, “USE OF EMODIN IN TREATING RETINAL ISCHEMIA OR A DISEASE, CONDITION, OR DISORDER ASSOCIATED WITH RETINAL ISCHEMIA” (priority 2020, published 2021).

Structures are written as SMILES.

Assay [1] relates to retinal ganglion cells (RGC) in ischemic retina of Wistar rats. Description: Retrograde fluorogold labeling of RGCs after retinal ischemia/reperfusion. Format: in vivo, rat. The conditions noted are these: n=4, mean±SE. The method, then: Emodin was purchased from Sigma-Aldrich (E7881; 90%; storage at 2-8° C.; from Frangula bark; St. Louis, Mo., United States). Drug administration for different procedures, namely ERG, fluorogold RGC labelling, cresyl violet retinal staining and Western blot assays, were described in Tables 3 to 6. Vehicle or emodin (5 μL) was administered via an intravitreous injection route so that these agents were then able to be directly diffused to the target. Emodin was dissolved in vehicle (DMSO:distilled water=1:3). The defined final cellular concentrations of administered drug were 0.25 or 0.5 μM, which were achieved after 40 times dilution from the stock concentrations, namely 10 or 20 μM, based on an arbitrary definition of the vitreous volume as 200 μL. To test a wider range of dose-response, 4 μM of emodin was thus added in the animal experiments. The Vehicle+IR and Emo+IR groups (pre-ischemic administration of emodin 4, 10 or 20 μM) were subjected to following the experimental procedures; these were initial pre-ischemic intravitreous injection (vehicle or emodin), retinal ischemia induction 1 day later, and sacrifice of the animal on the following day to allow the various post-mortem procedures except ERG. […] Finally, the samples were then analyzed by fluorescent microscopy. The RGC density was defined as the total RGC amount divided by the whole retinal area and its mean was then calculated.

Assay [2] relates to retinal ischemia in Wistar rats. Description: Cresyl violet stained retinal thickness after retinal ischemia/reperfusion. Format: in vivo, rat. As to conditions: n=10, mean±SE. As to the method:
Emodin was purchased from Sigma-Aldrich (E7881; 90%; storage at 2-8° C.; from Frangula bark; St. Louis, Mo., United States). Drug administration for different procedures, namely ERG, fluorogold RGC labelling, cresyl violet retinal staining and Western blot assays, were described in Tables 3 to 6. Vehicle or emodin (5 μL) was administered via an intravitreous injection route so that these agents were then able to be directly diffused to the target. Emodin was dissolved in vehicle (DMSO:distilled water=1:3). The defined final cellular concentrations of administered drug were 0.25 or 0.5 μM, which were achieved after 40 times dilution from the stock concentrations, namely 10 or 20 μM, based on an arbitrary definition of the vitreous volume as 200 μL. To test a wider range of dose-response, 4 μM of emodin was thus added in the animal experiments. The Vehicle+IR and Emo+IR groups (pre-ischemic administration of emodin 4, 10 or 20 μM) were subjected to following the experimental procedures; these were initial pre-ischemic intravitreous injection (vehicle or emodin), retinal ischemia induction 1 day later, and sacrifice of the animal on the following day to allow the various post-mortem procedures except ERG. In the post-ischemic treatment group, in order to decrease the number of animals used, the present invention only used a single emodin concentration of 20 μM. Furthermore, intravitreous emodin was given 1 day after initial retinal ischemia induction and animals were sacrificed the following day to allow the performance of various post-mortem procedures as mentioned above. The IOP procedure used raised the IOP and was designed to cause retinal ischemia in Wistar rats and simulate ischemic retinal disorders. The rats were anesthetized and constrained with a sterotaxic frame. A 30-gauge needle connected to an elevated saline bottle was attached to anterior chamber of the rat's eye. The pressure exerted by the saline inside the bottle was controlled to 120 mmHg. This procedure was conducted for 1 hour. Successful retinal ischemia induction was confirmed by observing that the whitening of the retina took place. Throughout the experiments, the animals were kept on heat mats to maintain their temperature. The sham procedure involved keeping the pressure in saline bottle 0 mmHg. After the aforementioned sacrifice of rats, the animals underwent intracardial perfusion with normal saline. The eyeballs were then enucleated, fixed with 4% paraformaldehyde for 1 day at 4° C., dehydrated with ethanol, embedded in paraffin (Tissue-Tek TEC 5; Sakura) and sectioned into 5 μm thickness slices. The sectioned samples were then stained with cresyl violet and examined using a light microscope (Leica). All sectioned retinal samples were photographed under the same magnification (Ilford Pan-F plus film, 50 ASA). The thickness of a retina was determined by sectioning retinal samples at the same distance (1.5 mm from the disc). To evaluate the degree of the injury caused by retinal ischemia, the whole retinal thickness [from the inner limiting membrane (ILM) to the retinal pigment epithelium (RPE) layer] and the inner retinal thickness [from the ILM to the inner nuclear layer (INL)] were measured. All the measurements were carried out by an expert who was unaware of the experimental conditions used to treat the samples.

The mark [3] stands for this setting: Emo10+IR: pre-ischemic intravitreous 10 μM emodin.
Where [4] appears, read: Emo20+IR: pre-ischemic intravitreous 20 μM emodin.
Where [5] appears, read: IR+Emo20: post-ischemic intravitreous 20 μM emodin.

`Cc1cc(O)c2c(c1)C(=O)c1cc(O)cc(O)c1C2=O` [emodin, 6-methyl-1,3,8-trihydroxyanthraquinone]: the “RGC density (retrograde fluorogold labeled)” value is reported as 3345.59±206.80 /0.17 mm^2 in assay [1] (Emo10+IR: pre-ischemic intravitreous 10 μM emodin, P<0.01, Sham 5323.53, Vehicle+IR 2069.12) and 4623.53±179.48 /0.17 mm^2 in assay [1] (Emo20+IR: pre-ischemic intravitreous 20 μM emodin, P<0.001). For the same compound, the inner retina thickness worked out at 38.60±1.01 μm in assay [2] (Emo4+IR: pre-ischemic intravitreous 4 μM emodin, Sham 79.90, Vehicle+IR 20.97); 70.05±0.60 μm in assay [2] (setting [3]); 70.65±2.06 μm in assay [2] (setting [4]); 69.65±0.68 μm in assay [2] (setting [5]). Moreover, the whole retina thickness in assay [2] (Emo4+IR: pre-ischemic intravitreous 4 μM emodin, Sham 186.50, Vehicle+IR 71.80) is on record as 87.40±0.60 μm; in assay [2] (setting [3]) it was 153.20±1.48 μm; in assay [2] (setting [4]), 170.10±0.10 μm; in assay [2] (setting [5]), 125.45±1.68 μm.
